Key:
sFd-35-ER-RFP = conditions: 4-HT in ethanol compared to ethanol alone
Protocol: Fluorescence spectroscopy.
(§1) The activity of sFd-35-ER was evaluated by expressing this protein using an aTc-inducible promoter (FIG. 31B). […] This protein was also expressed as a fusion to RFP (sFd-35-ER-RFP) to evaluate how 4-HT affects protein expression.

sFd-35-ER = assay: Complementation of E. coli EW11 growth by sFd-35-ER with 4-HT and other estrogen receptor modulators; assay type: cell-based, Escherichia coli
sFd-35-ER, sequence (P03372 311-547): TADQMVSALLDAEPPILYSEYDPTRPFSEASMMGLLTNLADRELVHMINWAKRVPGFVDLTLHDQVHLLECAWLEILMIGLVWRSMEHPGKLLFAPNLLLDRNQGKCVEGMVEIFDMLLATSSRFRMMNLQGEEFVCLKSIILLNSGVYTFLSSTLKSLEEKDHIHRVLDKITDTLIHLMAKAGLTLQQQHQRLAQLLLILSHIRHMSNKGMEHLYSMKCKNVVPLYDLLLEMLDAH
Protocol: Growth assay. For all growth experiments, E. coli EW11 were freshly transformed with two plasmids, one encoding the e-donor and acceptor pair (FNR and SIR) and the other encoding either a native Fd, a C42A mutant of Ml Fd that is unable to coordinate a 2Fe-2S cluster, or an engineered Fd. Starter cultures were inoculated using single colonies obtained by selecting for colonies containing both plasmids on LB-agar plates. These starter cultures were grown in deep-well 96-well plates for 18 hours at 37° C. in 1 mL of a non-selective modified M9 medium (M9c), which contained sodium phosphate, dibasic (6.8 g/L), sodium phosphate, monobasic (3 g/L), sodium chloride (0.5 g/L), ammonium chloride (1 g/L), calcium chloride (0.1 mM), magnesium sulfate (10 mM), ferric citrate (24 mg/L), p-aminobenzoic acid (2 mg/L), inositol (20 mg/L), adenine (5 mg/L), uracil (20 mg/L), tryptophan (40 mg/L), tyrosine (1.2 mg/L), and the remaining 18 amino acids (80 mg/L each). For auxotroph complementation analysis, starter cultures that had been grown to stationary phase in M9c were diluted ˜1:100 using a 96-well replicator pin into 100 μL of a selective modified M9 medium (M9sa), which is identical to M9c but lacks cysteine and methionine. […] Optical density (OD) measurements were taken every 10 minutes. To select for the Fd and e-donor/acceptor plasmids, all growth steps included chloramphenicol and streptomycin at 34 μg/mL and 100 μg/mL, respectively.
To test whether this domain-insertion strategy can be used to diversify the chemical regulation of sFd-35, the ligand-binding domain (LBD) of the human estrogen receptor (ER) was inserted after residue 35 to create sFd-35-ER (FIG. 26E).
as §1
To evaluate how these different modulators affect sFd-35-ER ET, sFd-35-ER growth complementation was evaluated in the presence of agonists, antagonists, and an endocrine disruptor (FIG. 32D).

[1] = test system: lysates derived from E. coli EW11 expressing FNR and SIR; assay: Sulfide production assay in cell lysates (sulfidefluor-7 fluorescence); assay type: biochemical, Escherichia coli
Protocol: Cell lysates. Electrocompetent E. coli EW11 were transformed with the plasmid (pSAC01) that constitutively expresses Zea mays FNR and SIR. Cells were grown to stationary phase at 37° C. and 250 rpm in 2×YTPG medium (16 g/L tryptone, 10 g/L yeast extract, 5 g/L NaCl, 3 g/L KH2PO4, 7 g/L K2HPO4, and 18 g/L glucose) containing 100 μg/mL streptomycin. Cells from overnight cultures were diluted 1:100 in fresh 2×YTPG medium containing streptomycin, grown for 2 hours at 37° C. while shaking at 250 rpm until mid-log phase, and then shifted to 30° C. and grown for an additional 4 hours. […] Protein content in lysates was quantified using Bio-Rad Protein Assay Dye Reagent Concentrate (Bio-Rad), using bovine serum albumin (NEB) as a standard.
Sulfide production assay. […] Following NADPH or protein addition, reactions were arrayed in a Corning 96 well plate at room temperature (Cost ar #3603), transferred to an Infinite m1000 Pro plate reader (Tecan), and heated to 37° C. and shaken at 250 rpm with fluorescence readings (λex=495 nm, λem=520 nm) every 15 seconds. […]
SIR activity was monitored in desalted cell lysates using sulfidefluor-7 (Lin et al., 2013), a fluorescent probe for hydrogen sulfide. […]

[2] = test system: split Fd fused to estrogen receptor
split Fd fused to estrogen receptor, sequence (P03372 311-547 limits assumed): as the sequence (P03372 311-547) above

[3] = Midpoint potentials by protein film (square wave) voltammetry; assay type: physicochemical; conditions: relative to standard hydrogen electrode, pH 7.0, 23.5° C.
Protocol: Midpoint potentials. Electrochemical experiments were carried out anaerobically in a MBraun Labmaster glovebox using a PGSTAT12 potentiostat. A three-electrode configuration was used in a water-jacketed glass cell. A platinum wire was used as the counter electrode and a standard calomel electrode was used as the reference electrode. Reported potentials are relative to the standard hydrogen electrode. Baseline measurements were collected using an edge-plane graphite (EPG) electrode that was modified with a 100 mM neomycin trisulfate solution, rinsed, and placed into a glass cell containing a 23.5° C. mixed buffer solution (5 mM acetate/MES/MOPS/TAPS/CHES/CAPS) pH 7.0, with 100 mM NaCl. A 5 μL aliquot of 720 μM Ml-Fd or 5 mM sFd-35-ER was applied directly to the electrode surface with or without 1 μL of 50 mM 4-HT, the protein was allowed to […] for approximately one minute at room temperature before being placed into the buffer cell solution. Square wave voltammograms were collected at 23.5° C. with a frequency of 10 Hz and electrochemical signals were analyzed using QSoas.
To investigate if domain insertion affects the reduction potential of Ml-Fd, Ml-Fd and sFd-35-ER were characterized using protein film voltammetry. In the absence of 4-HT, the midpoint potentials of both Ml-Fd and sFd-35-ER (FIG. 27C) were −336 and −320 mV, respectively. […]

E. coli EW11 = E. coli EW11 growth complementation by native, split or engineered Fds; assay type: cell-based, Escherichia coli; conditions: after 24 hours; Fd expressed from an aTc-inducible promoter, FNR and SIR constitutive
Protocol: Growth assay. […] Optical density (OD) measurements were taken every 10 minutes.
To rapidly assay ET mediated by engineered Fds, an Escherichia coli sulfide auxotroph (EW11; Barstow et al., 2011), which cannot grow in minimal medium containing sulfate as a sulfur source unless it expresses a synthetic ET chain consisting of a Fd-NADP+ reductase (FNR) electron donor, a Fd electron carrier, and a Fd-dependent sulfite reductase (SIR) electron acceptor, was used (FIG. 25A). Endogenous oxidoreductases were systematically removed from the genome of this strain to insulate Fd-dependent redox pathways from native redox reactions (Barstow et al., 2011). To evaluate Fd ET, Zea mays FNR and SIR were constitutively expressed and a TetR-repressible promoter was used to control the expression of plant-type 2Fe-2S Fds. […]
With this expression strategy, the inventors can quickly assess which split Fds require two fragments to function in complementation assays by assessing growth in the presence and absence of both inducers because growth depended upon the level of anhydrotetracycline (aTc) (FIG. 25B), and thus, the amount of Fd available to mediate ET. […] For these experiments, they assessed split Fd function in the presence of a constant high concentration of aTc, and varying concentrations of IPTG, which selectively drive the distinct promoters. […]

[4] = Fish et al., 2005; cited from earlier work

sFd-35-ER-RFP, sequence (P03372 311-547 limits assumed): as the sequence (P03372 311-547) above

| Substance | Effect of 4-HT on relative fluorescence of cells expressing sFd-35-ER-RFP (sFd-35-ER-RFP) | 4-HT concentration at which growth of sFd-35-ER is enhanced significantly above the C42A mutant (sFd-35-ER) [µM] | Activation of sFd-35-ER ET (growth complementation) (sFd-35-ER) | Effect of estrogen receptor modulators on complementation of E. coli EW11 by sFd-35-ER, compared to DMSO alone (sFd-35-ER) | EC50 (sFd-35-ER; read-out: k1/2 4-HT, complementation of E. coli EW11 by sFd-35-ER) [nM] | sulfide production rate on adding 4-HT alone ([1]; no Fd added) | effect of 4-HT addition alone on rate [2] | time after chemical addition at which the higher rate of sulfide production is detectable ([2]; 4-HT added at t=0) [min] | midpoint potential ([3]; absence of 4-HT) [mV] | midpoint potential ([3]; presence of 4-HT) [mV] | k1/2, growth complementation as a function of aTc (E. coli EW11) [ng/mL aTc] | rate of SF7 fluorescence with increasing concentrations of Ml-Fd ([1]; y=0.7×+12.252, r^2=0.983) | temperature of optimal ET [4] [°C] |
| --- | --- | --- | --- | --- | --- | --- | --- | --- | --- | --- | --- | --- | --- |
| 4-hydroxytamoxifen [4-HT] | no significant increase in fluorescence | ≥ 6.25 | activated | significantly enhance growth | 2110 | not enhanced | does not affect rate | ≤ 1.5 |  |  |  |  |  |
| Ml-Fd: Thermostable plant-type 2Fe-2S ferredoxin of Mastigocladus laminosus, UniProt P00248, SEQ ID NO: 11 |  |  |  |  |  |  |  |  | −336 | −330 | 1.8 | linearly increasing rate | 65 |

— patent US11407792B2, “Regulating electron flow using fragmented proteins” (WILLIAM MARSH RICE UNIVERSITY, priority 2017, dated 2022)
